Data as given in BindingDB's records for patent US10975056 (Glaxosmithkline Intellectual Property Development, 2021).
pIC50: −log10 of the molar value.

The molecules below were run against DNA (cytosine-5)-methyltransferase 1 (Homo sapiens, UniProt P26358) (assay: Biochemical Activity Assay).
Experimental: Biochemical activity of DNMT1 analyzed using SPA technology. […] Low control wells contained 5 μL of buffer instead of enzyme. Following a 40 minute incubation, the reaction was quenched upon the addition of 10 μL of stop mixture containing 1 mM SAM (Sigma A7007) and 2 mg/mL PEI beads (Perkin Elmer RPNQ0098).

Chain of DNA (cytosine-5)-methyltransferase 1 (P26358 whole entry): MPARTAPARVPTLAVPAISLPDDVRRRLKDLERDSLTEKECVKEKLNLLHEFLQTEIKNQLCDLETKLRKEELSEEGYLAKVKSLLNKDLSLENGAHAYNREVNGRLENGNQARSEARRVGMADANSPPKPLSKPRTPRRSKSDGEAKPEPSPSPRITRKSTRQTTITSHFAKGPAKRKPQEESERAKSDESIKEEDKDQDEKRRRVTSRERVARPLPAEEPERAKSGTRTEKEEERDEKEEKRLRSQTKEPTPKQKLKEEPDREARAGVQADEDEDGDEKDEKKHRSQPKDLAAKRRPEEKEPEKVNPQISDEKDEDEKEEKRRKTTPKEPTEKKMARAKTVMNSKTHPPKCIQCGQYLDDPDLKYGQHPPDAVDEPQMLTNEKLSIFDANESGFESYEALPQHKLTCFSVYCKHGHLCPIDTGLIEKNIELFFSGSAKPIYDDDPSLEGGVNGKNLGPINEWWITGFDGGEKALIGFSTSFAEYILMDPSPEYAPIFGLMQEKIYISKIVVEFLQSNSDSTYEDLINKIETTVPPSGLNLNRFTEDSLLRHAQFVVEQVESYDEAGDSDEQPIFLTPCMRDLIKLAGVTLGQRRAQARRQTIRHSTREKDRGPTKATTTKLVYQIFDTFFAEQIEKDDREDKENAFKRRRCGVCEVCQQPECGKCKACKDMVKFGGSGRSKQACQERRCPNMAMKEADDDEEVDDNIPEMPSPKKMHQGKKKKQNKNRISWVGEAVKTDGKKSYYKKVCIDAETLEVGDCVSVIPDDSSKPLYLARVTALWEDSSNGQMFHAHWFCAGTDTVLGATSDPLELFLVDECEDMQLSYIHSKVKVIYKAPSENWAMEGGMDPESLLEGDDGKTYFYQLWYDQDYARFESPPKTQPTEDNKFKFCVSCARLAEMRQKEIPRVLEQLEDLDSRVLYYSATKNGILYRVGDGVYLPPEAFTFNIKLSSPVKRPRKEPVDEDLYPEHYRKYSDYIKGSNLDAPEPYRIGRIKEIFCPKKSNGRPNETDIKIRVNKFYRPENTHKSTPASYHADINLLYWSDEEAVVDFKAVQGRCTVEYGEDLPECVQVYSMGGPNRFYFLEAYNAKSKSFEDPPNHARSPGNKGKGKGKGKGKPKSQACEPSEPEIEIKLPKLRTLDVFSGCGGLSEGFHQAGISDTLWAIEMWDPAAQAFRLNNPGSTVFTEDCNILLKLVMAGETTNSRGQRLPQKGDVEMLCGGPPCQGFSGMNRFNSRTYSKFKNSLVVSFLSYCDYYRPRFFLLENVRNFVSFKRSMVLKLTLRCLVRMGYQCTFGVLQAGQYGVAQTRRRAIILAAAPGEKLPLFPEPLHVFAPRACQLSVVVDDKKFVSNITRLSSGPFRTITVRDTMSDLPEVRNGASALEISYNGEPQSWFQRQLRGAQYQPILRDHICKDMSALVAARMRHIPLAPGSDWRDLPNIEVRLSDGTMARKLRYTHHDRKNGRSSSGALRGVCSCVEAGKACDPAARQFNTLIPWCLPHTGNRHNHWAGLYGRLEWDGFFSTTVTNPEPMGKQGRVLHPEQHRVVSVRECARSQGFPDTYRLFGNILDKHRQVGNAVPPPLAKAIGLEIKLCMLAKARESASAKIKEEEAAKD

Q: With `CCc1c(C#N)c(SCc2ccc(S(N)(=O)=O)cc2)nc(N2CCCN(C)CC2)c1C#N` [US10975056, Example 76] as the molecule, how does the pIC50 read?
A: > 6.49

Q: How did the pIC50 turn out when `CCc1c(C#N)c(SC(C(N)=O)c2ccccc2)nc(N2CCC(NCC3(C)CCC3)CC2)c1C#N` (centres undefined) [US10975056, Example 466] was run?
A: > 6.49

Q: With `CCc1c(C#N)c(SC(C(N)=O)c2ccccc2)nc(N2CCC(N3[C@H](C)CC[C@H]3C)CC2)c1C#N` (some centres undefined) [US10975056, Example 472] as the molecule, how does the pIC50 read?
A: > 6.49

Q: How did the pIC50 turn out when `CCc1c(C#N)c(SC(C(N)=O)c2ccccc2)nc(N(C)CC(=O)N2CC[C@@H](CO)C2)c1C#N` (some centres undefined) [US10975056, Example 652] was run?
A: > 6.49
